pEC50, pIC50: −log10 of the molar value.
Legend:
K562 cells = experiment: Erythroid differentiation of K562 cells by benzidine staining; assay type: cell-based, human; details: optimized concentration, mean ± SD of six experiments
Protocol: The biological activity of the compounds of the present application was evaluated by examining the capacity to modulate the expression of γ-globin genes in the human K562 cell line, which is capable of differentiating in the erythroid manner by expressing genes for γ-globin if treated with modifiers of the biological response that are suitable for the purpose (Bianchi et al, J. Haematol., 113, 4, p. 951-961, 2001). The human K562 cells were cultured in RPMI 1640 medium (Sigma, St Louis, Mo., USA) supplemented with 10% foetal bovine serum (FBS; Analitical de Mori, Milan, Italy), 100 units/mL penicillin and 100 μg/mL streptomycin. Cell growth was determined according to cell number/ml, using a cell counter (Coulter Electronics, Hialeah, Fla., USA). For experiments, K562 cell cultures were initiated at 3×10^4/mL and the chemical inducers at the indicated concentrations added. Following 3-5 days incubation without a medium change erythroid differentiation was determined by staining the cells in a solution containing 0.2% benzidine in 0.5 M glacial acetic acid, 10% H2O2. Benzidine positivity indicates the presence of intracellular Hb.
The erythroid differentiation of K562 cells was investigated following treatment with selected compounds of the invention. The effect on cell proliferation was first determined for all tested molecules by culture of K562 cells in the presence of increasing concentration of the compounds. The cell number per sample was then determined after 3, 4 and 5 days. The IC50 values reported in Table 3 for the antiproliferative effect were calculated from the concentration of the compounds necessary to decrease the cell number to 50% of the values obtained in control untreated K562 cell cultures, after a 5 days culture period. Erythroid differentiation was measured by benzidine staining after 5, 6 and 7 days of cell culture and by quantitative reverse transcriptase polymerase-chain reaction (RT-qPCR) to quantify the expression of γ-globin mRNA. Different concentrations of tested compounds were employed because of their differing antiproliferative effects; accordingly, concentrations were chosen to maximize the erythroid induction effect without extensive reduction of cell viability. In Table 3 the % of benzidine positive cells and the increase in γ-globin mRNA assayed by RT-qPCR after 6 days of culture period are reported.
Table 4 reports induction of erythroid differentiation in K562 cells treated with an optimized concentration of the compound 2 in comparison with known inducers. Compound 2 is able to stimulate an increase of the proportion of benzidine-positive (hemoglobin producing) K562 cells. This is associated with an increase of the expression of γ-globin mRNA.

HDAC in Hela cells = experiment: HDAC Hela Cell Based assay
HDAC1 = target: T1, HDAC1 (Homo sapiens, UniProt Q13547); experiment: HDAC1 assay (Fluor-de-Lys fluorescent deacetylase assay); assay type: biochemical; details: read-out: hHDAC IC50
T1 construct: made in house
T1 sequence (Q13547 whole entry): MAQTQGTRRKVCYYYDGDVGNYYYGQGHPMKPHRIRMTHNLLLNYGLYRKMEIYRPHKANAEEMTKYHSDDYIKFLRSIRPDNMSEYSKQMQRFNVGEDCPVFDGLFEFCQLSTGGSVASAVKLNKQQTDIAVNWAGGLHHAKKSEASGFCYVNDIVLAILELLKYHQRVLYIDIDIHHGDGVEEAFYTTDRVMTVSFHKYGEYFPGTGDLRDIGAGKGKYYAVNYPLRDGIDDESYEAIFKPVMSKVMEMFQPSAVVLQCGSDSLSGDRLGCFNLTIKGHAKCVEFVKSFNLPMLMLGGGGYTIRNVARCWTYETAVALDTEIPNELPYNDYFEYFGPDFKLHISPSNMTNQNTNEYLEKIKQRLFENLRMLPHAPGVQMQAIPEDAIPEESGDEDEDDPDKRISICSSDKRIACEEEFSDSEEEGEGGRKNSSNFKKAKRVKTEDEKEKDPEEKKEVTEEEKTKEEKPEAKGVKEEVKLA
How it was run: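 Serially diluted compounds were pre-incubated with purified FLAG-tagged HDAC1 (1-2 nM final; from transfected HeLa cells) or HeLa nuclear extract, then given the Fluor-de-Lys acetyl-lysine substrate/developer; deacetylation read as fluorescence. Reactions were stopped with TSA (3 uM final).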

[1] = test system: human γ-globin promoter (EGFP reporter) in K562 cells; experiment: HbF activation assay on K562 (EGFP/RFP reporter model system for screening of inducers of fetal hemoglobin); assay type: cell-based; details: 60 hours
How it was run: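 K562 cells stably carrying EGFP under the human γ-globin promoter and far-red FP under the β-globin promoter, with the LCR, were seeded at 1000 cells/well. Cells were exposed to compounds (0.25% DMSO final) for 60 h at 37 °C. Fluorescence was read by plate cytometry, normalized to Hoechst nuclei count, which also indicated proliferation or death.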

| Structure (SMILES) | Benzidine positive cells (%) (K562 cells) | pIC50 (HDAC in Hela cells) | pIC50 (HDAC1) | pEC50 [1] |
| --- | --- | --- | --- | --- |
| O=c1ccc2ccc3occc3c2o1 [Angelicin, reference compound] | 62 ± 8.5% | – | – | – |
| CCCC(=O)O [Butyric acid, reference compound] | 32 ± 6.4% | – | – | – |
| N.N.[Cl][Pt][Cl] [Cisplatin, reference compound] | 63 ± 8.5% | – | – | – |
| CCC(=O)CCCCC[C@H](NC(=O)Cn1cc2ccccc2n1)c1ncc(-c2cc3ccccc3nc2OC)o1 [Compound 88, (S)-2-(2H-indazol-2-yl)-N-(1-(5-(2-methoxyquinolin-3-yl)oxazol-2-yl)-7-oxononyl)acetamide] | – | 6.00 to 7.00 | > 7.00 | < 6.00 |
| CCC(=O)CCCCC[C@H](NC(=O)Cc1cc2ncccn2n1)c1ncc(-c2cc3ccccc3nc2OC)o1 [Compound 89, (S)-N-(1-(5-(2-methoxyquinolin-3-yl)oxazol-2-yl)-7-oxononyl)-2-(pyrazolo[1,5-a]pyrimidin-2-yl)acetamide] | – | 6.00 to 7.00 | > 7.00 | < 6.00 |
| CCC(=O)CCCCC[C@H](NC(=O)c1nnc(C)o1)c1ncc(-c2cc3ccccc3nc2OC)o1 [Compound 90, (S)-N-(1-(5-(2-methoxyquinolin-3-yl)oxazol-2-yl)-7-oxononyl)-5-methyl-1,3,4-oxadiazole-2-carboxamide] | – | 6.00 to 7.00 | > 7.00 | < 6.00 |
| CCC(=O)CCCCC[C@H](NC(=O)c1cccnc1)c1ncc(-c2cc3ccccc3nc2OC)o1 [Compound 91, (S)-N-(1-(5-(2-methoxyquinolin-3-yl)oxazol-2-yl)-7-oxononyl)nicotinamide] | – | 6.00 to 7.00 | > 7.00 | 6.00 to 7.00 |
| CCC(=O)CCCCC[C@H](NC(=O)CCc1cnn(C)c1)c1ncc(-c2cc3ccccc3nc2OC)o1 [Compound 93, (S)-N-(1-(5-(2-methoxyquinolin-3-yl)oxazol-2-yl)-7-oxononyl)-3-(1-methyl-1H-pyrazol-4-yl)propanamide] | – | 6.00 to 7.00 | > 7.00 | 6.00 to 7.00 |
| CCC(=O)CCCCC[C@H](NC(=O)c1cc(CN2CCCCC2)ns1)c1ncc(-c2cc3ccccc3nc2OC)o1 [Compound 94, (S)-N-(1-(5-(2-methoxyquinolin-3-yl)oxazol-2-yl)-7-oxononyl)-3-(piperidin-1-ylmethyl)isothiazole-5-carboxamide] | – | 6.00 to 7.00 | > 7.00 | < 6.00 |
| CCC(=O)CCCCC[C@H](NC(=O)C(C)n1nc(C)cc1C)c1ncc(-c2cc3ccccc3nc2OC)o1 (stereo partly drawn) [Compound 95, 2-(3,5-dimethyl-1H-pyrazol-1-yl)-N-((S)-1-(5-(2-methoxyquinolin-3-yl)oxazol-2-yl)-7-oxononyl)propanamide] | – | 6.00 to 7.00 | > 7.00 | < 6.00 |
| CCC(=O)CCCCC[C@H](NC(=O)c1cc(C)nn1C)c1ncc(-c2cc3ccccc3nc2OC)o1 [Compound 96, (S)-N-(1-(5-(2-methoxyquinolin-3-yl)oxazol-2-yl)-7-oxononyl)-1,3-dimethyl-1H-pyrazole-5-carboxamide] | – | 6.00 to 7.00 | > 7.00 | < 6.00 |
| CCC(=O)CCCCC[C@H](NC(=O)Cn1cnc2ccccc21)c1ncc(-c2cc3ccccc3nc2OC)o1 [Compound 97, (S)-2-(1H-benzo[d]imidazol-1-yl)-N-(1-(5-(2-methoxyquinolin-3-yl)oxazol-2-yl)-7-oxononyl)acetamide] | – | 6.00 to 7.00 | > 7.00 | < 6.00 |
| CCC(=O)CCCCC[C@H](NC(=O)c1ccn(C)n1)c1ncc(-c2cc3ccccc3nc2OC)o1 [Compound 98, (S)-N-(1-(5-(2-methoxyquinolin-3-yl)oxazol-2-yl)-7-oxononyl)-1-methyl-1H-pyrazole-3-carboxamide] | – | 6.00 to 7.00 | > 7.00 | < 6.00 |
| CCC(=O)CCCCC[C@H](NC(=O)c1csnn1)c1ncc(-c2cc3ccccc3nc2OC)o1 [Compound 99, (S)-N-(1-(5-(2-methoxyquinolin-3-yl)oxazol-2-yl)-7-oxononyl)-1,2,3-thiadiazole-4-carboxamide] | – | 6.00 to 7.00 | > 7.00 | < 6.00 |
| CCC(=O)CCCCC[C@H](NC(=O)c1ccns1)c1ncc(-c2cc3ccccc3nc2OC)o1 [Compound 100, (S)-N-(1-(5-(2-methoxyquinolin-3-yl)oxazol-2-yl)-7-oxononyl)isothiazole-5-carboxamide] | – | 6.00 to 7.00 | > 7.00 | 6.00 to 7.00 |
| CCC(=O)CCCCC[C@H](NC(=O)c1snnc1C)c1ncc(-c2cc3ccccc3nc2OC)o1 [Compound 101, (S)-N-(1-(5-(2-methoxyquinolin-3-yl)oxazol-2-yl)-7-oxononyl)-4-methyl-1,2,3-thiadiazole-5-carboxamide] | – | 6.00 to 7.00 | > 7.00 | < 6.00 |
| CCC(=O)CCCCC[C@H](NC(=O)C(C)n1cccn1)c1ncc(-c2cc3ccccc3nc2OC)o1 (stereo partly drawn) [Compound 102, N-((S)-1-(5-(2-methoxyquinolin-3-yl)oxazol-2-yl)-7-oxononyl)-2-(1H-pyrazol-1-yl)propanamide] | – | 6.00 to 7.00 | > 7.00 | < 6.00 |
| CCC(=O)CCCCC[C@H](NC(=O)c1csc(CN(C)C)n1)c1ncc(-c2cc3ccccc3nc2OC)o1 [Compound 103, (S)-2-((dimethylamino)methyl)-N-(1-(5-(2-methoxyquinolin-3-yl)oxazol-2-yl)-7-oxononyl)thiazole-4-carboxamide] | – | 6.00 to 7.00 | 6.00 to 7.00 | < 6.00 |
| CCC(=O)CCCCC[C@H](NC(=O)C1CCCN(C)C1)c1ncc(-c2cc3ccccc3nc2OC)o1 (stereo partly drawn) [Compound 104, N-((S)-1-(5-(2-methoxyquinolin-3-yl)oxazol-2-yl)-7-oxononyl)-1-methylpiperidine-3-carboxamide] | – | > 7.00 | > 7.00 | 6.00 to 7.00 |
| CCC(=O)CCCCC[C@H](NC(=O)C1(N(C)C)CCCC1)c1ncc(-c2cc3ccccc3nc2OC)o1 [Compound 105, (S)-1-(dimethylamino)-N-(1-(5-(2-methoxyquinolin-3-yl)oxazol-2-yl)-7-oxononyl)cyclopentanecarboxamide] | – | > 7.00 | > 7.00 | 6.00 to 7.00 |
| CCC(=O)CCCCC[C@H](NC(=O)CC1CN(C)C1)c1ncc(-c2cc3ccccc3nc2OC)o1 [Compound 108, (S)-N-(1-(5-(2-methoxyquinolin-3-yl)oxazol-2-yl)-7-oxononyl)-2-(1-methylazetidin-3-yl)acetamide] | – | > 7.00 | > 7.00 | 6.00 to 7.00 |
| Nc1ccn([C@@H]2O[C@H](CO)[C@@H](O)[C@@H]2O)c(=O)n1 [Cytosin arabinoside, reference compound] | 75 ± 5.4% | – | – | – |
| NC(=O)NO [Hydroxyurea, reference compound] | 30 ± 7.5% | – | – | – |
| Oc1ccc(C=Cc2cc(O)cc(O)c2)cc1 [Resveratrol, reference compound] | 70 ± 8.5% | – | – | – |

From patent US9371295B2, “Compounds for use in the treatment of disorders that are ameliorated by inhibition of HDAC” (IRBM—Science Park S.p.A., priority 2012, dated 2016)
